Laboratory results as given in patent US5430157A, “Reduced phenanthrenes” (Eli Lilly and Company, priority 1993, dated 1995).
pIC50: −log10 of the molar value.

Target: T1, Type II 5α-reductase from human prostate (Homo sapiens, UniProt P31213)
T1 construct: Human prostate tissue from prostate surgeries was obtained immediately after surgery, frozen on dry ice; from tissue; host or cells: human prostate tissue from surgery; homogenate, 100,000 x g pellet resuspended
T1 sequence (P31213 1-254): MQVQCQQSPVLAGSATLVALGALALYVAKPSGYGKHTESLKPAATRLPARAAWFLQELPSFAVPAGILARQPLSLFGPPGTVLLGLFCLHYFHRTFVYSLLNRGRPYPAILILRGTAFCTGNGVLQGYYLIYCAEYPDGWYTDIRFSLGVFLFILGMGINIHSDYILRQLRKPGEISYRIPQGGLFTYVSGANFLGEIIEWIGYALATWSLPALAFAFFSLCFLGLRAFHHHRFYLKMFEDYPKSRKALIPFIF
Test: Human Type II steroid 5α-reductase assay (conversion of [3H]-testosterone to DHT)
Assay type: biochemical
Conditions: human prostate enzyme preparation, 50 nM [3H]-testosterone, pH 5.5, 30 min at 25°, compared to control reaction mixtures; read-out: 50% inhibitory concentration
Experimental: Methodology of Human Type II Steroid 5α-Reductase Assays
Preparation of Type II 5α-Reductase from Human Prostate:
Human prostate tissue from prostate surgeries was obtained immediately after surgery, frozen on dry ice and stored at -80° C. The tissue was frozen with liquid nitrogen and pulverized to powder. The powder was homogenized in ice-cold buffer (20 mM sodium phosphate, pH 6.5) using a Brinkmann Polvtron (Westbury, N.Y.) with a PTA 10-S probe and a setting of 7. The homogenization procedure consisted of four 15 second pulses. Connective tissue was cleared from the probe with forceps between pulses. […]
This enzyme assay is based on the conversion of [^3 H]-testosterone to [^3 H]-5α-dihydrotestosterone (DHT) and other 5α-reduced metabolites. […] Essentially no androsterone was detected. […]
The [^3 H]-testosterone substrate and its metabolites were separated by chromatography using a C-18 reversed phase column (Beckman Ultrasphere 5 μm spherical 80A pore, part no. 235329, 4.6 mm i.d..div.25 mm length) with an isocratic mobile phase (46 water: 46 methanol: 8 tetrahydrofuran by volume). […] A 400 μl aliquot was injected onto the column and radioactivity was determined using a Beckman 171 in-line flow radioisotope detector in conjunction with Rainin Dynamax™ software and a Macintosh computer. […]

Structure (SMILES)	pIC50
C[C@]12CCC(C(=O)O)=CC1=CCc1cc(Cl)ccc12 [Example 1, (-)-2-Chloro-4b-methyl-4b,5,6,10-tetrahydrophenanthrene-7-carboxylic acid]	6.82
C[C@]12CCC(c3nnn[nH]3)=CC1=CCc1cc(Cl)ccc12 [Example 2, (-)-2-Chloro-4b-methyl-4b,5,6,10-tetrahydrophenanthrene-7-(1-tetrazole)]	6.22
